Like-named read-outs stand apart in the source and are kept apart here.
Legend:
[1] = Assay C: metabolic stability in human liver microsomes (Human MST); type: in vitro ADME; conditions: pH 7.6; pooled human liver microsomes, 1 μM compound, 37° C.; read-out: Human MST t1/2
Description: Stability in human liver microsomes refers to the susceptibility of compounds to biotransformation in the context of selecting and/or designing drugs with favorable pharmacokinetic properties. The primary site of metabolism for many drugs is the liver. Human liver microsomes contain the cytochrome P450s (CYPs), and thus represent a model system for studying drug metabolization in vitro. Enhanced stability in human liver microsomes is associated with several advantages, including increased bioavailability and longer half-life, which can enable lower and less frequent dosing of patients. Thus, enhanced stability in human liver microsomes is a favorable characteristic for compounds that are to be used for drugs.
C. Assessment of Metabolic Stability in Human Liver Microsomes (Human MST)
The metabolic stability of the compounds according to the invention may be investigated as follows:
The metabolic degradation of the test compound is assayed at 37° C. with pooled human liver microsomes. The final incubation volume of 100 μL per time point contains TRIS buffer pH 7.6 at room temperature (0.1 M), MgCl2 (5 mM), microsomal protein (1 mg/mL) and the test compound at a final concentration of 1 μM. Following a short pre-incubation period at 37° C., the reactions are initiated by addition of beta-nicotinamide adenine dinucleotide phosphate, reduced form (NADPH, 1 mM), and terminated by transferring an aliquot into solvent after different time points. After centrifugation (10000 g, 5 min), an aliquot of the supernatant is assayed by LC-MS/MS for the amount of parent compound. The half-life (t1/2) is determined by the slope of the semi-logarithmic plot of the concentration-time profile.

[2] = test system: human MDR1 P-gp; assay: Assay D: efflux in MDCK cells transfected with the human MDR1 gene; type: in vitro ADME, canine; conditions: dog; MDCK-MDR1 monolayers, pH 7.4, 37° C.; read-out: MDCK efflux ratio (BA/AB)
Description: The MDCK assay provides information on the potential of a compound to pass the blood brain barrier. Permeability measurements across polarized, confluent MDCK-MDR1 cell monolayers grown on permeable filter supports are used as an in vitro absorption model: apparent permeability coefficients (PE) of the compounds across the MDCK-MDR1 cell monolayers are measured (pH 7.4, 37° C.) in apical-to-basal (AB) and basal-to-apical (BA) transport direction. […] Identical or similar permeabilities in both transport directions indicate passive permeation, vectorial permeability points to additional active transport mechanisms. Higher PEBA than PEAB (PEBA/PEAB>5) indicates the involvement of active efflux mediated by MDR1 P-gp, which might compromises the goal to achieve sufficient brain exposure. Therefore this assay provides valuable support for selection of compounds applicable for further in vivo testing. High permeability not limited by efflux at the blood brain barrier is a favourable characteristic for compounds that are to be used for drugs acting primarily in the CNS
D. Assessment of Efflux in Madin-Darby Canine Kidney (MDCK) Cells Transfected with the Human MDR1 Gene
Apparent permeability coefficients (PE) of the compounds across the MDCK-MDR1 cell monolayers are measured (pH 7.4, 37° C.) in apical-to-basal (AB) and basal-to-apical (BA) transport direction. […] The compounds are assigned to permeability/absorption classes by comparison of the AB permeabilities with the AB permeabilities of reference compounds with known in vitro permeability and oral absorption in the human. Identical or similar permeabilities in both transport directions indicate passive permeation, vectorial permeability points to additional active transport mechanisms. Higher PEBA than PEAB indicates the involvement of active efflux mediated by MDR1 P-gp. Active transport is concentration-dependently saturable.
MDCK-MDR1 cells (1-2×10e5 cells/1 cm2 area) are seeded on filter inserts (Costar transwell polycarbonate or PET filters, 0.4 μm pore size) and cultured (DMEM) for 7 days. Subsequently, the MDR1 expression is boosted by culturing the cells with 5 mM sodium butyrate in full medium for 2 days. Compounds are dissolved in appropriate solvent (like DMSO, 1-20 mM stock solutions). Stock solutions are diluted with HTP-4 buffer (128.13 mM NaCl, 5.36 mM KCl, 1 mM MgSO4, 1.8 mM CaCl2, 4.17 mM NaHCO3, 1.19 mM Na2HPO4×7H2O, 0.41 mM NaH2PO4×H2O, 15 mM HEPES, 20 mM glucose, 0.25% BSA, pH 7.4) to prepare the transport solutions (0.1-300 μM compound, final DMSO<=0.5%). The transport solution (TL) is applied to the apical or basolateral donor side for measuring A-B or B-A permeability (3 filter replicates), respectively. The receiver side contains the same buffer as the donor side. Samples are collected at the start and end of experiment from the donor and at various time intervals for up to 2 hours also from the receiver side for concentration measurement by HPLC-MS/MS or scintillation counting. Sampled receiver volumes are replaced with fresh receiver solution.

[3] = biological target: T1, human Orexin 1 receptor (Homo sapiens, UniProt O43613); assay: Assay A: in vitro testing of OX1R potency, OX1R IP1; type: cell-based; conditions: for Kb: 50 nM Orexin A concentration
T1 sequence (O43613 1-425): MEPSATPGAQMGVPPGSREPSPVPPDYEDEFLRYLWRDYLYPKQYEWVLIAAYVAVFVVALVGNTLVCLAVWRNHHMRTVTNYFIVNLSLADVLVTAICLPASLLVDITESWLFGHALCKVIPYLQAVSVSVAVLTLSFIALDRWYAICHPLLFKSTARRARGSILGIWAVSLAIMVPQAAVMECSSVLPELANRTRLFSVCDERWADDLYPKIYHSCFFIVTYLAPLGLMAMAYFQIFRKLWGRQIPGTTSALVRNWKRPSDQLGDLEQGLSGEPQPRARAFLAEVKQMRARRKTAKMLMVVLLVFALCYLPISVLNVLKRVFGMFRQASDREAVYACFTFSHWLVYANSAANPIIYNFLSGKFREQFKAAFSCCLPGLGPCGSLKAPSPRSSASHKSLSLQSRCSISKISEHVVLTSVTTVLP
Description: Chem. Genomics 2009, 3, 22-32.
A. In Vitro Testing of OX1R Potency: OX1R IP1

[4] = biological target: T2, OX2R (Homo sapiens, UniProt O43614); assay: In vitro OX2R potency as reported in WO2016/034882
T2 sequence (O43614 1-444): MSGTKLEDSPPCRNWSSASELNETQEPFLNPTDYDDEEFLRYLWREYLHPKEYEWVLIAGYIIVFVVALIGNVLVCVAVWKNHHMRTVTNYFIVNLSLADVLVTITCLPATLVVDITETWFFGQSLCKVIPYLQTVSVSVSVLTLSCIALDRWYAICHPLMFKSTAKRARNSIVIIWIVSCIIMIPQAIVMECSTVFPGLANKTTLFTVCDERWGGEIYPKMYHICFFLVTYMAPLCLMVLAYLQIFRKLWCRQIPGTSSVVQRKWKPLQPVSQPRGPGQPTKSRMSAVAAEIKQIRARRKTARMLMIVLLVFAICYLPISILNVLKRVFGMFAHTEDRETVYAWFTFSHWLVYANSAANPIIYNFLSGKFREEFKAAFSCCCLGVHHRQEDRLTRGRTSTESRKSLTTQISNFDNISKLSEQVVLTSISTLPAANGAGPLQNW

[5] = biological target: T2, OX2R; conditions: cited from earlier work
[6] = compared to Example 84 in WO2016/034882
[7] = Table 3 of WO2016/034882, corresponds to pIC50

| Compound | half-life at 1 μM [1] [min] | efflux ratio [2] | Kb [3] [nM] | further results |
| --- | --- | --- | --- | --- |
| C[C@@H](CNc1ncc(C(F)(F)F)cn1)N(C)C(=O)c1cccc(F)c1-c1ncccn1 [Example 9] | > 130 | < 3 | 0.223 | higher potency (OX1R) [3, 6]: ~10 fold |
| CC[C@@H](CNc1ncc(C(F)(F)F)cn1)N(C)C(=O)c1nc(C)ccc1-n1nccn1 [Ex 46 in WO2016/ 034882] | – | – | – | OX2R IC50/OX1R IC50 ([4]; Table 1 of WO2016/034882): 390; OX2R IC50/OX1R IC50 ([4]; Table 2 of WO2016/034882): > 312; OX2R IC50/OX1R IC50 ([4]; Table 3 of WO2016/034882): 3200; IC50 ([5]; Table 2 of WO2016/034882, corresponds to pIC50): > 10 µM; OX2R pIC50 ([5]; Table 2 of WO2016/034882): < 5.0; IC50 [5, 7]: ≥ 10 µM; OX2R pIC50 ([5]; Table 3 of WO2016/034882): < 5.0 |
| CC[C@@H](CNc1ncc(C(F)(F)F)cn1)N(CC)C(=O)c1nc(C)ccc1-n1nccn1 [Ex 73 in WO2016/ 034882] | – | – | – | IC50 [5, 7]: > 1 µM; OX2R pIC50 ([5]; Table 3 of WO2016/034882): < 6.0 |
| CCN(C(=O)c1cc(F)cnc1-n1nccn1)[C@@H](C)CNc1ccc(C(F)(F)F)cn1 [Example 12] | 44 | 3 to 5.5 | 0.156 | higher potency (OX1R) ([3]; compared to Example 73 in WO2016/034882): approximately 2 fold |
| CC[C@@H](CNc1ncc(C(F)(F)F)cn1)N(C)C(=O)c1c(F)cccc1-n1nccn1 [Ex 91 in WO2016/ 034882] | > 130 | – | – | IC50 [5, 7]: ≥ 7.59 µM; OX2R pIC50 ([5]; Table 3 of WO2016/034882): < 5.1 |
| CCN(C(=O)c1cccc(F)c1-n1nccn1)[C@@H](C)CNc1ncc(C(F)(F)F)cc1C#N [Example 7] | 89 | < 3 | 0.021 | – |
| CC[C@@H](CNc1cnc(C(F)(F)F)cn1)N(C)C(=O)c1cc(Cl)ccc1-n1nccn1 [Ex 40 in WO2016/ 034882] | – | – | – | OX2R IC50/OX1R IC50 ([4]; Table 1 of WO2016/034882): Table 1: 156 |
| C[C@@H](CNc1ncc(C(F)(F)F)cn1)N(CC1CC1)C(=O)c1cccc(F)c1-n1nccn1 [Example 1] | 73 | < 3 | 0.214 | – |
| C[C@@H](CNc1ncc(C(F)(F)F)cn1)N(CCF)C(=O)c1cccc(F)c1-n1nccn1 [Example 2] | > 130 | < 3 | 0.67 | – |
| CCN(C(=O)c1cnc(C)nc1-c1ccccc1)[C@@H](C)CNc1ncc(Br)cn1 [Example 13] | 76 | < 3 | 0.089 | – |
| CCN(C(=O)c1cc(Cl)ccc1-n1nccn1)[C@@H](C)CNc1cnc(C(F)(F)F)cn1 [Example 10] | 130 | < 3 | 0.011 | better potency (OX1R) ([3]; compared to Example 40 in WO2016/034882): 16 fold |
| CCN(C(=O)c1ccc(F)c(F)c1-c1ncccn1)[C@@H](C)CNc1ncc(C(F)(F)F)cn1 [Example 8] | > 130 | < 3 | 0.014 | higher potency (OX1R) [3, 6]: over 150 fold |
| CCN(C(=O)c1cccc(F)c1-n1nccn1)[C@@H](C)CNc1ncc(Br)cn1 [Example 4] | > 130 | < 3 | 0.116 | – |
| CCN(C(=O)c1cc(Cl)ccc1-n1nccn1)[C@@H](C)CNc1ncc(C(F)(F)F)cn1 [Example 3] | 130 | < 3 | 0.032 | – |

From patent US11236072B2, “N-[(pyrimidinylamino)propanyl]-,n-[pyridylamino)propanyl]- and n-[(pyrazinylaminol)propanyl]arylcarboxamides” (Boehringer Ingelheim International GmbH, priority 2017, dated 2022)
